From ChEMBL document CHEMBL1139267, “Discovery of a potent, selective and orally bioavailable 3,9-diazaspiro[5.5]undeca-2-one CCR5 antagonist” (Bioorg Med Chem Lett, 2009)

Columns and labels:
[1] = Metabolic stability in human liver microsomes assessed as clearance; type: ADME, Microsome
[2] = target: C-C chemokine receptor type 5 (Homo sapiens, UniProt P51681); assay: Antagonist activity at CCR5 receptor by radiolabeled RANTES binding assay
[3] = system: Human immunodeficiency virus 1; assay: Antiviral activity against R5 tropic HIV1 BaL infected in human JC53-BL cells expressing CCR5 after 2 days by cell-cell fusion assay; type: functional, organism-based; conditions: Human immunodeficiency virus 1, BaL, JC53BL, 48 h
[4] = system: Human immunodeficiency virus 1; assay: Inhibition of R5 tropic HIV1 BaL replication in human PBMC; type: functional, organism-based; conditions: Human immunodeficiency virus 1, BaL
[5] = target: C-X-C chemokine receptor type 4 (Homo sapiens, UniProt P61073); assay: Inhibition of CXCR4 receptor
Sequence of C-X-C chemokine receptor type 4 (P61073 whole entry): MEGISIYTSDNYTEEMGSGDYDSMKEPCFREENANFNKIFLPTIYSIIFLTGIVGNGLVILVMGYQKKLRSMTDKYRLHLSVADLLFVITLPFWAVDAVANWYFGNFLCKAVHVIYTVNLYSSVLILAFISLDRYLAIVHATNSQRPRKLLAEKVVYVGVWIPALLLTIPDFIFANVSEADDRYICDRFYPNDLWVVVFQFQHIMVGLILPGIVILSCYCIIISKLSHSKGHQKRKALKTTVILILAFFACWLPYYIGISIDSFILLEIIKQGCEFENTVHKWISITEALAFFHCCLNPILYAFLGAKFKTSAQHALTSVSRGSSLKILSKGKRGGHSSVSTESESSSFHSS

Rattus norvegicus [6] = assay: Half life in rat at 2 mg/kg, po; type: ADME, organism-based; set-up: dose 2 mg/kg, route oral; conditions: in vivo
[7] = target: T1, C-C chemokine receptor type 4 (Homo sapiens, UniProt P51679); assay: Inhibition of CCR4 receptor
T1 sequence (P51679 whole entry): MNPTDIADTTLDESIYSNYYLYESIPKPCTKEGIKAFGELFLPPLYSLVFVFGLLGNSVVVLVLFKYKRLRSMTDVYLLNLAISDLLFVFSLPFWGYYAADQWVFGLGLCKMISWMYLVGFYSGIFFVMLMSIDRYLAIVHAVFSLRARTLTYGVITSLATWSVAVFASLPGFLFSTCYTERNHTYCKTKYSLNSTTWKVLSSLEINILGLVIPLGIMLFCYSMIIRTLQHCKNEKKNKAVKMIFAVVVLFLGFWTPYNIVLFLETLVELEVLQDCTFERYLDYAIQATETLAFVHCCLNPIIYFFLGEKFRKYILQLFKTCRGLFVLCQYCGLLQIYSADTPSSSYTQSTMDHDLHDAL

Rattus norvegicus [8] = assay: AUC in rat at 2 mg/kg, po; type: ADME, organism-based, Plasma; set-up: dose 2 mg/kg, route oral; conditions: in vivo
[9] = target: C-C chemokine receptor type 2 (Homo sapiens, UniProt P41597); assay: Inhibition of CCR2 receptor
Sequence of C-C chemokine receptor type 2 (P41597 whole entry): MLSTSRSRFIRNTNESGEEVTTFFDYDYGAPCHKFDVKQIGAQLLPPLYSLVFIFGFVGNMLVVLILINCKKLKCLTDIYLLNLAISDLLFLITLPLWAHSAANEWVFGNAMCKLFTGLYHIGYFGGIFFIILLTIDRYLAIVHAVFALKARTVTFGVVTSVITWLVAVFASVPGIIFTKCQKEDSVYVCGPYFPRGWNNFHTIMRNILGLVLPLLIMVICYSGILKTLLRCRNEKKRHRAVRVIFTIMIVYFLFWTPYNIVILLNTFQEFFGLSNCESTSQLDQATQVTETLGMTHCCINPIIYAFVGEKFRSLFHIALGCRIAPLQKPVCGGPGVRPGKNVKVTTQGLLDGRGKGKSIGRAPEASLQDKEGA

[10] = target: T2, C-C chemokine receptor type 6 (Homo sapiens, UniProt P51684); assay: Inhibition of CCR6 receptor
T2 sequence (P51684 whole entry): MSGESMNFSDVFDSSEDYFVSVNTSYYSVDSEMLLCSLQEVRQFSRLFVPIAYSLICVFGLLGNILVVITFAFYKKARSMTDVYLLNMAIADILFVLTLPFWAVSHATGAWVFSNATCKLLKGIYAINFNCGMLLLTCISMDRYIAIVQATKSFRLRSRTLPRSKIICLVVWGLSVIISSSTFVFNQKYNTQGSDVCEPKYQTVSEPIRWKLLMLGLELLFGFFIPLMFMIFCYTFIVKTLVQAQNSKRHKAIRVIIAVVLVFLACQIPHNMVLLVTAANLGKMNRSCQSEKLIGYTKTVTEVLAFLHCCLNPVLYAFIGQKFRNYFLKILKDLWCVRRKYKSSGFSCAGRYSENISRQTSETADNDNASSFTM

[11] = AUC in rat at 0.5 mg/kg, iv; type: ADME, organism-based; set-up: dose 0.5 mg/kg, route intravenous; conditions: plasma
hERG (KCNH2) = hERG (KCNH2) (Homo sapiens, UniProt Q12809); assay: Inhibition of human ERG receptor
Sequence of hERG (KCNH2) (Q12809 whole entry): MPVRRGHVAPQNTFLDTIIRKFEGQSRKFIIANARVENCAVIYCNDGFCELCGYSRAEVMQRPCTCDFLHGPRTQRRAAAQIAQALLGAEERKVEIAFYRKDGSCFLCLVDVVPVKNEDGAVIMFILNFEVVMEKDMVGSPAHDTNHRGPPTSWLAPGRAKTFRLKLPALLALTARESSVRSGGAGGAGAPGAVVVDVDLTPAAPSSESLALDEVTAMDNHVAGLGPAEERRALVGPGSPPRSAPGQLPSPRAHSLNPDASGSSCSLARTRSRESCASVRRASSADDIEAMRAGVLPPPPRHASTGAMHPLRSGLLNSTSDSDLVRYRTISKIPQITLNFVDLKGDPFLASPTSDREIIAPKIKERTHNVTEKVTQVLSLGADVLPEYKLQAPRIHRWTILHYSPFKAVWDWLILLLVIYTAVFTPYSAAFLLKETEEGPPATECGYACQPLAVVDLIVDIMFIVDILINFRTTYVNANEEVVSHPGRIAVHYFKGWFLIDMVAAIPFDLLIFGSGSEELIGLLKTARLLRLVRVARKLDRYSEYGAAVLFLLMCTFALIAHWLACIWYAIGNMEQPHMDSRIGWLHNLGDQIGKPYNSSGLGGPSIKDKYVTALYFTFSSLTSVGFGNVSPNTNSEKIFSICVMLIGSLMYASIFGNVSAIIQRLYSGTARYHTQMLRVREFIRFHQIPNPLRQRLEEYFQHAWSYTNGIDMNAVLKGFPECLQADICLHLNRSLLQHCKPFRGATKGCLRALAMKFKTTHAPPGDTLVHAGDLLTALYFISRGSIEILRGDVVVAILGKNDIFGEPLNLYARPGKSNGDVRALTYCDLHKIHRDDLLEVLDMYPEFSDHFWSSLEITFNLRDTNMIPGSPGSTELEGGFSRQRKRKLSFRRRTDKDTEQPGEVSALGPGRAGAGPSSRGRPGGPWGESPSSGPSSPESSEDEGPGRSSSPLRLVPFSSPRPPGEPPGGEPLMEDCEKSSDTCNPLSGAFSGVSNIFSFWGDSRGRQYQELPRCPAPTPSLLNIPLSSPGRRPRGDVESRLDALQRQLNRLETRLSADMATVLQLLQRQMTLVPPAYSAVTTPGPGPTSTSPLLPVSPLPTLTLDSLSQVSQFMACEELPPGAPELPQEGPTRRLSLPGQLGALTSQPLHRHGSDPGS

Rattus norvegicus [12] = assay: Tmax in rat at 2 mg/kg, po; type: ADME, organism-based; set-up: dose 2 mg/kg, route oral; conditions: in vivo
[13] = target: T3, C-C chemokine receptor type 3 (Homo sapiens, UniProt P51677); assay: Inhibition of CCR3 receptor
T3 sequence (P51677 whole entry): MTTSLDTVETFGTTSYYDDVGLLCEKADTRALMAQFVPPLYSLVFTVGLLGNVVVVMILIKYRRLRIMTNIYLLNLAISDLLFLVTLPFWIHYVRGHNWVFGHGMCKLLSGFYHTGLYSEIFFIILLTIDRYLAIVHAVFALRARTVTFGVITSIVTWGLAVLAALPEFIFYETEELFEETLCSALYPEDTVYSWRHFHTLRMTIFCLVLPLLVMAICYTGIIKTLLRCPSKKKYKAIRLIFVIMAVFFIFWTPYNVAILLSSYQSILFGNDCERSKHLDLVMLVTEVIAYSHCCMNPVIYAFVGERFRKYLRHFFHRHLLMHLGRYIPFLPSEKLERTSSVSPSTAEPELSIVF

[14] = Mean retention time in rat at 2 mg/kg, po; type: ADME, organism-based; set-up: dose 2 mg/kg, route oral; conditions: in vivo
Rattus norvegicus [15] = assay: Cmax in rat at 2 mg/kg, po; type: ADME, organism-based; set-up: dose 2 mg/kg, route oral; conditions: in vivo
[16] = Half life in rat at 0.5 mg/kg, iv; type: ADME, organism-based; set-up: dose 0.5 mg/kg, route intravenous; conditions: in vivo
[17] = target: T4, C-C chemokine receptor type 1 (Homo sapiens, UniProt P32246); assay: Inhibition of CCR1 receptor
T4 sequence (P32246 whole entry): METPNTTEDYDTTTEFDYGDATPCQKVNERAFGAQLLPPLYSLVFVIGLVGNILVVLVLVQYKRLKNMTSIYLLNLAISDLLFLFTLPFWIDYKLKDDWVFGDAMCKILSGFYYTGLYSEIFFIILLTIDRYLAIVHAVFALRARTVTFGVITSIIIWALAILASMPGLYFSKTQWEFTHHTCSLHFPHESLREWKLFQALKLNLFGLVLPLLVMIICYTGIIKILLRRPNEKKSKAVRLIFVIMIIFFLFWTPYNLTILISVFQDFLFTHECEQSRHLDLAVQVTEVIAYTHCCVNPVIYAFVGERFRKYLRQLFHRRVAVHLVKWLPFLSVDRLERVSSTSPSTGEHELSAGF

[18] = Mean retention time in rat at 0.5 mg/kg, iv; type: ADME, organism-based; set-up: dose 0.5 mg/kg, route intravenous; conditions: in vivo
[19] = Clearance in rat at 0.5 mg/kg, iv; type: ADME, organism-based; set-up: dose 0.5 mg/kg, route intravenous; conditions: in vivo
[20] = Oral bioavailability in rat at 2 mg/kg; type: ADME, organism-based; conditions: in vivo
[21] = Volume of distribution at steady state in rat at 0.5 mg/kg, iv; type: ADME, organism-based; set-up: dose 0.5 mg/kg, route intravenous; conditions: in vivo, read-out: Vdss

Sequence of C-C chemokine receptor type 5 (P51681 whole entry, the tested form may be a part): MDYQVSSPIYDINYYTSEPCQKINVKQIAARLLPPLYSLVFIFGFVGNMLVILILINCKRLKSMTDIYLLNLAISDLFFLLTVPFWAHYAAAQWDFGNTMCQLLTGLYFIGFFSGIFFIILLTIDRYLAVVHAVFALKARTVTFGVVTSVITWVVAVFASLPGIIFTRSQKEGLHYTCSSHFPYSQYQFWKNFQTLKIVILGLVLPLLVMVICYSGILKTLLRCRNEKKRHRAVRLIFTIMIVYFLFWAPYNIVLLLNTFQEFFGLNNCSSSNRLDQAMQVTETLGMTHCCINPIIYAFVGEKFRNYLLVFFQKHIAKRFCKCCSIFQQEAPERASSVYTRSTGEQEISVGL

Structure (SMILES) | microsomal CLint [1] [µL/min/mg] | IC50 [2] [nM] | IC50 [3] [nM] | further results
CCCCC1CN(S(=O)(=O)c2cn(C)cn2)CCC12CCN(C1(C)CCN(C(=O)c3c(C)ncnc3C)CC1)CC2 (configuration not stated) | 96 | 27 | 7 | –
CCCC[C@H]1C(=O)N(C[C@H]2CC[C@H](OCC)CC2)CCC12CCN(C1(C)CCN(C(=O)c3c(C)ncnc3C)CC1)CC2 | – | – | – | IC50 [4]: 0.8 nM; IC90 [4]: 4 nM
CCCCC1C(=O)N(CC2CCN(C(=O)OC)CC2)CCC12CCN(C1(C)CCN(C(=O)c3c(C)ncnc3C)CC1)CC2 (configuration not stated) | – | 60 | 8 | –
CCCC[C@@H]1C(=O)N(C[C@H]2CC[C@H](OCC)CC2)CCC12CCN(C1(C)CCN(C(=O)c3c(C)ncnc3C)CC1)CC2 | – | – | – | IC50 [4]: 0.5 nM; IC90 [4]: 3 nM
CCCCC1CN(S(=O)(=O)C2CCN(C(C)=O)CC2)CCC12CCN(C1(C)CCN(C(=O)c3c(C)ncnc3C)CC1)CC2 (configuration not stated) | 70 | 78 | 10 | –
CCCCC1C(=O)N(Cc2ccc(F)cc2)CCC12CCN(C1(C)CCN(C(=O)c3c(C)ncnc3C)CC1)CC2 (configuration not stated) | – | 19 | 100 | –
CCCCC1CN(C(=O)OC2CCOCC2)CCC12CCN(C1(C)CCN(C(=O)c3c(C)ncnc3C)CC1)CC2 (configuration not stated) | – | 349 | > 5000 | –
CCCCC1C(=O)N(C[C@H]2CC[C@H](OCC)CC2)CCC12CCN(C1(C)CCN(C(=O)c3c(C)ncnc3C)CC1)CC2 (some centres not stated) | – | 30 | 5 | IC50 [5]: > 50000 nM; t1/2 (Rattus norvegicus [6]): 4.19 h; IC50 [7]: > 50000 nM; AUC (Rattus norvegicus [8]): 910 ng·h/mL; IC50 [4]: 1.4 nM; IC90 [4]: 7.5 nM; IC50 [9]: > 50000 nM; IC50 [10]: > 50000 nM; AUC [11]: 334 ng·h/mL; IC20 (hERG (KCNH2)): 3000 nM; Tmax (Rattus norvegicus [12]): 1 h; IC50 [13]: > 50000 nM; MRT [14]: 4.33 h; Cmax (Rattus norvegicus [15]): 2.03 ng/mL; half-life [16]: 3.8 h; IC50 [17]: > 50000 nM; MRT [18]: 2.65 h; clearance [19]: 24.1 mL/min/kg; bioavailability [20]: 66%; Vd [21]: 4.71 L/kg
CCCCC1C(=O)N(C[C@H]2CC[C@H](O)CC2)CCC12CCN(C1(C)CCN(C(=O)c3c(C)cc(C#N)nc3C)CC1)CC2 (some centres not stated) | – | 31 | < 2.5 | –
CCCCC1CN(S(=O)(=O)N(C)C)CCC12CCN(C1(C)CCN(C(=O)c3c(C)ncnc3C)CC1)CC2 (configuration not stated) | 207 | 60 | 7 | –
CCCOC1CN(S(=O)(=O)C2CC2)CCC12CCN(C1(C)CCN(C(=O)c3c(C)ncnc3C)CC1)CC2 (configuration not stated) | – | 80 | 400 | –
CCCCC1C(=O)N(CC2CCN(CC(F)F)CC2)CCC12CCN(C1(C)CCN(C(=O)c3c(C)ncnc3C)CC1)CC2 (configuration not stated) | – | 70 | 26 | –
CCCC[C@H]1CN(C(=O)NC)CCC12CCN(C1(C)CCN(C(=O)c3c(C)ncnc3C)CC1)CC2 | – | 35 | 4 | –
CCCCC1C(=O)N(C[C@H]2CC[C@H](OC)CC2)CCC12CCN(C1(C)CCN(C(=O)c3c(C)ncnc3C)CC1)CC2 (some centres not stated) | – | 37 | 6 | –
CCCCC1CN(S(=O)(=O)C2CC2)CCC12CCN(C1(C)CCN(C(=O)c3c(C)ncnc3C)CC1)CC2 (configuration not stated) | 100 | 22 | 7 | –
CCCCC1CN(S(=O)(=O)c2ccccn2)CCC12CCN(C1(C)CCN(C(=O)c3c(C)ncnc3C)CC1)CC2 (configuration not stated) | 310 | 18 | 4 | –
Cc1ncnc(C)c1C(=O)N1CCC(C)(N2CCC3(CC2)CCN(S(C)(=O)=O)CC3c2ccccc2)CC1 (configuration not stated) | – | 104 | 1900 | –
CCCCC1CN(S(=O)(=O)C2CCN(C=O)CC2)CCC12CCN(C1(C)CCN(C(=O)c3c(C)ncnc3C)CC1)CC2 (configuration not stated) | 60 | 64 | 14 | –
CCCCC1CN(CC2CCOCC2)CCC12CCN(C1(C)CCN(C(=O)c3c(C)ncnc3C)CC1)CC2 (configuration not stated) | – | > 500 | > 5000 | –
CCCCC1CN(C(=O)C2CCOCC2)CCC12CCN(C1(C)CCN(C(=O)c3c(C)cc(C#N)nc3C)CC1)CC2 (configuration not stated) | – | 217 | 170 | –
CCCCC1CN(S(=O)(=O)c2ccccc2)CCC12CCN(C1(C)CCN(C(=O)c3c(C)ncnc3C)CC1)CC2 (configuration not stated) | 773 | 19 | < 1 | –
CCCC[C@H]1CN(S(=O)(=O)CC(F)(F)F)CCC12CCN(C1(C)CCN(C(=O)c3c(C)ncnc3C)CC1)CC2 | 53 | 19 | 3 | –
CCCCC1CN(C(=O)C2CCOCC2)CCC12CCN(C1(C)CCN(C(=O)c3c(C)ncnc3C)CC1)CC2 (configuration not stated) | – | > 500 | > 5000 | –
CCCCC1CN(S(=O)(=O)C2CCOCC2)CCC12CCN(C1(C)CCN(C(=O)c3c(C)ncnc3C)CC1)CC2 (configuration not stated) | 280 | 22 | 6 | –
CCCCC1CN(S(=O)(=O)N2CCOCC2)CCC12CCN(C1(C)CCN(C(=O)c3c(C)ncnc3C)CC1)CC2 (configuration not stated) | 276 | 11 | 1 | –
CCCCC1C(=O)N(C[C@H]2CC[C@H](O)CC2)CCC12CCN(C1(C)CCN(C(=O)c3c(C)ncnc3C)CC1)CC2 (some centres not stated) | – | 76 | 10 | –
CCCCC1C(=O)N(CC2CCOCC2)CCC12CCN(C1(C)CCN(C(=O)c3c(C)ncnc3C)CC1)CC2 (configuration not stated) | – | 30 | 4 | –
CCCCC1CN(S(C)(=O)=O)CCC12CCN(C1(C)CCN(C(=O)c3c(C)ncnc3C)CC1)CC2 (configuration not stated) | 7 | 25 | 100 | –
